Three compounds from PMC4306921 (Scientific Reports, 2015) can be followed below.

Holding throughout (type): cell-based
One experiment relates to CHO-K1 cells. As to conditions: CHO-K1, no receptor plasmid, 10 μM 5-HT, 12–24 h.
A further experiment has as its system 293T cells. As to conditions: no receptor plasmid, 10 μM 5-HT, 12–24 h.
The next experiment relates to adenylyl cyclase. Briefly: FSK stimulation in the CRE-luc reporter gene assay system. As to conditions: read-out: EC50 value of FSK in reporter gene assay system; data not shown.
The target of a further experiment is 5-HT2A receptor (Homo sapiens, UniProt P28223). In words: CRE-luc luciferase reporter gene assay, 5-HT2A transfected CHO-K1 cells. As to conditions: 5-HT2A transfected cells, 0.1 μM antagonist, 5-HT lower than 1 μM. For orientation: In a reporter assay the amount or activity of a reporter protein is the signal.
5-HT2A receptor, sequence (P28223 whole entry): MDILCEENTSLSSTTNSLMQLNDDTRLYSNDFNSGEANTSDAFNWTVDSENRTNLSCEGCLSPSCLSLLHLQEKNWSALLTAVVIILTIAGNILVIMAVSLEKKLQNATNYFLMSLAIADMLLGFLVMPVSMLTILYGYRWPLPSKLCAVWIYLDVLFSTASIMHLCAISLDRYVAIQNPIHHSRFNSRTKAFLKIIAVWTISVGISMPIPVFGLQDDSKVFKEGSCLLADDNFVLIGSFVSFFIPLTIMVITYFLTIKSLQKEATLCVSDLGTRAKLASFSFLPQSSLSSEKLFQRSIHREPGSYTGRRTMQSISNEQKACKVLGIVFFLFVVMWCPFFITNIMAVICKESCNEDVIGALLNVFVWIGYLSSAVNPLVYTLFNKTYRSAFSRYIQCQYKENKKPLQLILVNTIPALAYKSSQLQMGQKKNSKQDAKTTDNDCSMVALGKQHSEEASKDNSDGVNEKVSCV

For `NCCc1c[nH]c2ccc(O)cc12` [5-HT], the “nonspecific/endogenous activation of CRE-luc by 5-HT” value in the experiment on CHO-K1 cells is “no nonspecific and endogenous activation was observed”; in the experiment on 293T cells, “significantly expression of luciferase was detected”.

Turning to `C=C[C@@]1(C)CC(=O)[C@]2(O)[C@@]3(C)[C@@H](O)CCC(C)(C)[C@@H]3[C@H](O)[C@H](OC(C)=O)[C@@]2(C)O1` [FSK], in the experiment on adenylyl cyclase, the EC50 came out at 780 nM.

For `CSc1ccc2c(c1)C(N1CCN(C)CC1)Cc1ccccc1S2` (stereo not shown) [Methiothepin], the “suppression of luciferase reporter gene expression” value at 5-HT2A receptor is on record as “significantly suppress”.

As a reminder, the EC50 is the concentration needed to bring the measured effect to its halfway point.
